{"source": "patent US8293979B2", "about": "“Weed controller metabolism proteins, genes, thereof and use of the same” (Sumitomo Chemical Company, Limited, priority 2001, dated 2012)", "key": {"Ivyleaf morningglory": {"tested_on": "Ivyleaf morningglory", "experiment": "Herbicidal activity test, soil surface treatment", "type": "in vivo, Ipomoea hederacea", "design": "key: 0: situations in which the condition of sprouting or vegetation at the time of examination of the plant utilized for the test was compared with and showed totally or substantially no difference with that of the untreated application; 10: situations in which the plant completely withered or the sprouting or vegetation was completely suppressed", "details": "500 g/ha, sprayed onto the surface of the soil after seeding, investigated after 19 days in a greenhouse", "procedure": "Soil was packed into a round plastic pot having a diameter of 10 cm and depth of 10 cm. Barnyardgrass, Blackgrass, Ivyleaf morningglory were seeded. Five (5) parts of the test compound, 6 parts of sorpol3005X (Toho Chemical Company) and 89 parts of xylene were well mixed to produce an emulsion. A certain amount thereof was diluted with water containing 0.1% (v/v) of a sticking agent at a proportion of 1000 L for 1 hectare and was spread uniformly with a spray-gun onto the surface of the soil. After cultivating the plants for 19 days in a greenhouse, the herbicidal activity was investigated.\nIn the above Tables 3 and 4, the strength of the herbicidal activity is shown stepwise as 0, 1, 2, 3, 4, 5, 6, 7, 8, 9, and 10."}, "[1]": {"tested_on": "present invention protein (A21)", "experiment": "Detection of the ability to convert compound (II) to compound (III), E. coli pKSN1543BF extract", "type": "in vitro ADME, Streptomyces misawanensis IFO 13855T", "details": "3 ppm of compound (II) labeled with 14C, components A, B, 10 minutes at 30° C.", "procedure": "(§1) Reaction solutions of 30 μl were prepared and maintained for 10 minutes at 30° C. The reaction solutions consisted of a 0.1M potassium phosphate buffer (pH7.0) containing 3 ppm of compound (II) labeled with ^14C, 2 mM of β-NADPH (hereinafter, referred to as “component A”) (Oriental Yeast Company), 2 mg/ml of a ferredoxin derived from spinach (hereinafter referred to as “component B”) (Sigma Company), 0.1 U/ml of ferredoxin reductase (hereinafter, referred to as “component C”) (Sigma Company) and 23 μl of the supernatant fraction recovered in Example 32(2). Similarly to Example 4(3), the reaction solutions after the maintenance were extracted with ethyl acetate and the extracted layers were TLC analyzed. […] A spot corresponding to compound (III) was detected from the reaction solution containing E. coli pKSN849AF extract. In contrast, such a spot was not detected from the reaction solution containing E. coli pKSN2 extract.\n(§2) Similarly to Example 32(3), reaction solutions of 30 μl were prepared and maintained for 10 minutes at 30° C. […] The reaction solutions after the maintenance were extracted with ethyl acetate and the extracted layers were TLC analyzed. […] A spot corresponding to compound (III) was detected from the reaction solution containing E. coli pKSN1543BF extract. In contrast, such a spot was not detected from the reaction solution containing E. coli pKSN2 extract."}, "[2]": {"tested_on": "present invention protein (A20)", "experiment": "Detection of the ability to convert compound (II) to compound (III), E. coli pKSN1525F extract", "type": "in vitro ADME, Streptomyces lanatus IFO 12787T", "details": "3 ppm of compound (II) labeled with 14C, components A, B, 10 minutes at 30° C.", "procedure": "as §1\nas §2, with “pKSN1525F” for “pKSN1543BF”"}, "[3]": {"tested_on": "present invention protein (A16)", "experiment": "Metabolism of compounds by the present invention protein (A16), reaction solution, HPLC", "type": "in vitro ADME, Streptomyces ornatus IFO 13069t", "details": "12.5 ppm of compound, components A, B, C, 20 μl supernatant fraction of Example 49(2), 30° C. for 10 minutes", "procedure": "There was prepared 100 μl of a reaction solution of 50 mM potassium phosphate buffer (pH7.0) containing 12.5 ppm of compound (XII), 3 mM of β-NADPH (hereinafter, referred to as “component A”) (Oriental Yeast Company), 1 mg/ml of a ferredoxin derived from spinach (hereinafter referred to as “component B”) (Sigma Company), 0.15 U/ml of ferredoxin reductase (hereinafter, referred to as “component C”) (Sigma Company) and 20 μl of the supernatant fraction recovered in Example 49(2). The reaction solution was maintained at 30° C. for 10 minutes. […] Forty microliters (40 μl) of the liquid filtrate (hereinafter, the liquid filtrate derived from the reaction solution containing component A, component B, component C and 20 μl of supernatant fraction recovered in Example 49(2) is referred to as “(XII) metabolism solution (A16);” further, the liquid filtrate derived from the reaction solution containing no component A, no component B, no component C and no supernatant fraction recovered in Example 49(2) is referred to as “(XII) control solution (A16)”) were analyzed on a HPLC under the above analysis condition 1. Compared to the concentration of compound (XII) detected from (XII) control solution (A16), the concentration of compound (XII) detected from (XII) metabolism solution (A16) was lower. […]"}}, "data": [{"smiles": "C[C@@H](Oc1cc(-n2c(=O)cc(C(F)(F)F)n(C)c2=O)c(F)cc1Cl)C(=O)O", "note": "[compound (II)]", "values": [{"measurement": "Herbicidal Activity Ivyleaf Morningglory", "setting": "Ivyleaf morningglory", "value": 10}, {"measurement": "spot corresponding to compound (III) labeled with 14C (TLC)", "setting": "[1]", "value": "detected"}, {"measurement": "spot corresponding to compound (III) labeled with 14C (TLC)", "setting": "[2]", "value": "detected"}]}, {"smiles": "Cn1c(C(F)(F)F)cc(=O)n(-c2cc(Oc3cccnc3OCC(=O)O)c(Cl)cc2F)c1=O", "note": "[compound (XII)]", "values": [{"measurement": "concentration of the compound detected from metabolism solution (A16) compared to control solution (A16)", "setting": "[3]", "value": "lower"}]}]}
